Measurements reported in patent US20240132518A1, “CEPHALOSPORIN ANTIBACTERIAL COMPOUND AND PREPARATION METHOD THEREFOR” (priority 2021, published 2024).
≈ marks a conversion by molar mass, not a printed value. Read-outs that look alike come from different tables or passages of the source.

Key:
[1] = Pharmacokinetic study in ICR mice; type: in vivo; details: 100 mg/kg subcutaneous injection, plasma
Experimental: The formulation for administration was prepared on ice. A proper amount of the test compound was precisely weighed out, and a 90% volume of normal saline was slowly added. The mixture was ultrasonically stirred in an ice-water bath until no large pieces existed. After the mixture was well mixed, a 1 M NaOH solution was added in small portions using a pipette.
• Species and strain: ICR mice • Animal grade: SPF • Animal source: Medicilon: 999M-018
Administration by subcutaneous injection: 3 mice/sex/time point; blood samples were collected at 9 time points: 0.083 h, 0.25 h, 0.5 h, 1 h, 2 h, 4 h, 6 h, 8 h and 24 h after administration. The collected blood samples were placed in EDTA-K2 anticoagulation blood collection tubes. The collected whole blood was placed on ice and centrifuged at 6800 g at 2-8° C. for 6 min to separate plasma within 1 h. After the centrifugation, the plasma was transferred to a centrifuge tube to which a plasma stabilizer had been added in advance (plasma:concentrated phosphoric acid=100:0.2; for example, 1 μL of 10% concentrated phosphoric acid was added to 50 μL of plasma). All the animals were subjected to careful clinical observation before administration and at each of the blood collection time points after administration, and the adverse reaction symptoms in the animals were recorded.

[2] = Pharmacokinetic study in cynomolgus monkeys; type: in vivo; details: cynomolgus monkey, 10 mg/kg single intravenous infusion, plasma, individual animals
Experimental: An appropriate amount of a test compound was weighed precisely and added to a container, and 0.9% sodium chloride injection and 0.2 M NaOH solution were added thereto in an ice bath until the test compound was completely dissolved, so that a sample solution at a concentration of 2 mg/mL was obtained followed by storage at 2-8° C. for later use.
• Species and strain: cynomolgus monkey • Animal grade: general grade • Animal source: Guangxi Xiongsen Primate Experimental Animal Breeding Development Co., Ltd. • Number of the using of laboratory animal: SYXK (Su) 2019-0012
6 cynomolgus monkeys (half male and half female) were selected and randomly divided into 3 groups with 1 animal/sex in each group. The cynomolgus monkeys were administered with the test sample at a dose of 10 mg/kg by the single intravenous infusion. Blood samples were collected from each group of animals at the following time points: before administration, and 5 min, 15 min, 0.5 h, 1 h, 2 h, 4 h, 6 h, and 8 h after administration. In the test, the concentration of each test compound in the plasma of the cynomolgus monkey was detected by the LC-MS/MS method, and the lower limits of quantification of the analysis methods for the plasma samples were all 1 μg/mL. The plasma concentration data were analyzed by the non-compartmental analysis (NCA) of the analysis software for pharmacokinetic data, WinNonlin, pharmacokinetic parameters were calculated, and pharmacokinetic characteristics of the test compounds in cynomolgus monkeys after administration were investigated, with the results shown in the following table.

[3] = test system: Carbapenem-resistant Acinetobacter baumannii (CRAB); assay: Antibacterial MIC assay (ID-CAMHB), carbapenem-resistant Acinetobacter baumannii; type: cell-based
Experimental: (§1) 1. The test compounds were dissolved in sterile normal saline, vortexed for uniformly mixing, and diluted in a 2-fold dilution with the sterile normal saline (11 concentration points in total). The test concentration range was 32-0.031 μg/mL, and two duplicate wells were set for each concentration. Additional wells without drug dosing were set as growth controls.
(§2) 2. 4 μL of the diluent was added to 196 μL of the bacterial suspension in a 96-well plate (the bacterial count in the bacterial suspension was 2-8×10^5 colony forming units/mL).
(§3) The minimum inhibitory concentration (MIC) assay was performed with reference to the Clinical and Laboratory Standards Institute (CLSI) guidelines.

[4] = test system: Carbapenem-resistant Enterobacteriaceae (CRE, Klebsiella pneumoniae); assay: Antibacterial MIC assay (ID-CAMHB), carbapenem-resistant Enterobacteriaceae; type: cell-based
Experimental: as §1, §2, §3

[5] = test system: Control strain (Pseudomonas aeruginosa) ATCC 27853; assay: Antibacterial MIC assay (ID-CAMHB), control strain Pseudomonas aeruginosa; type: cell-based; details: ATCC27853
Experimental: as §1, §2, §3

[6] = test system: Control strain (Escherichia coli) ATCC 25922; assay: Antibacterial MIC assay (ID-CAMHB), control strain Escherichia coli; type: cell-based; details: ATCC25922, ID-CAMHB, control strain ATCC 25922, read-out: MIC
Experimental: as §1, §2, §3

[7] = test system: Carbapenem-resistant Pseudomonas aeruginosa (CRPA); assay: Antibacterial MIC assay (ID-CAMHB), carbapenem-resistant Pseudomonas aeruginosa; type: cell-based
Experimental: as §1, §2, §3

[8] = strain FDA-CDC AR-BANK#0063, AMR gene OXA-23, OXA-65, OXA-24, sul2, read-out: MIC
[9] = strain FDA-CDC AR-BANK#0453, AMR gene KPC-3, OmpK35, oqxA, oqxB, SHV-11, TEM-1B
[10] = both sexes, cynomolgus, iv, 10 mg/kg

**Q.** What does the source list for CC(C)(O/N=C(\C(=O)N[C@@H]1C(=O)N2C(C(=O)[O-])=C(C[N+]3(CCNC(=O)c4ccc(O)c(O)c4Cl)CCCC3)CS[C@H]12)c1csc(N)n1)C(=O)O [Cefiderocol, reference compound]?
**A.** AUMC0-inf [1]: 150.7 h · h · ug · mL^−1; AUMC0-t [1]: 150.3 h · h · ug · mL^−1; Kel [1]: 1.45 h⁻¹; MRTPO [1]: 34.6 min; AUC(0-inf) ([1]; both sexes, mouse, sc): 261000 ng·h/mL; AUC(0-t) ([1]; both sexes, mouse, sc): 261000 ng·h/mL; Cmax ([1]; both sexes, mouse, sc): 363000 ng/mL; Tmax ([1]; both sexes, mouse, sc): 15 min; half-life ([1]; both sexes, mouse, sc): 28.6 min; Vd ([2]; 10 mg/kg): 0.37963 L/kg; MIC [3, 8]: 4 µg/mL (≈ 5.32 µM); MIC [4, 9]: 1 µg/mL (≈ 1.33 µM)

**Q.** With CC(C)(O/N=C(\C(=O)N[C@@H]1C(=O)N2C(C(=O)[O-])=C(C[N+]3(CCN(CCCNC(=O)c4ccc(O)c(O)c4Cl)C(=O)c4ccc(O)c(O)c4Cl)CCCC3)CS[C@H]12)c1csc(N)n1)C(=O)O [Compound 1] as the compound, how does the MIC [5] read?
**A.** Its MIC is 0.125 µg/mL (≈ 0.128 µM).

**Q.** What about the AUC(0-inf) [2, 10] of the same compound?
**A.** The AUC(0-inf) was 32900 ng·h/mL.

**Q.** What about the AUC(0-t) [2, 10] of the same compound?
**A.** Its AUC(0-t) is 29300 ng·h/mL.

**Q.** What about the clearance [2, 10] of the same compound?
**A.** Its clearance is 5.06 mL/min/kg.

**Q.** What about the half-life [2, 10] of the same compound?
**A.** Its half-life is 37.2 min.

**Q.** And the Cmax ([2]; both sexes, cynomolgus, iv, 10 mg/kg, read-out: Cmax)?
**A.** Its Cmax is 35500 ng/mL.

**Q.** And the MRT ([2]; both sexes, cynomolgus, iv, 10 mg/kg, read-out: MRT)?
**A.** Its MRT is 38.4 min.

**Q.** What about the Vd ([2]; both sexes, cynomolgus, iv, 10 mg/kg, read-out: Vd) of the same compound?
**A.** The Vd was 0.27 L/kg.

**Q.** What about the Tmax ([2]; both sexes) of the same compound?
**A.** The Tmax was 4.8 min.

**Q.** And the AUC last ([2]; 10 mg/kg)?
**A.** Its AUC last is 23440 ng·h/mL.

**Q.** What about the AUCinf ([2]; 10 mg/kg) of the same compound?
**A.** The AUCinf was 25640 ng·h/mL.

**Q.** What about the CL ([2]; 10 mg/kg) of the same compound?
**A.** Its CL is 6.5002 mL/min/kg.

**Q.** And the Cmax ([2]; 10 mg/kg)?
**A.** The Cmax was 30640 ng/mL.

**Q.** And the MRT ([2]; 10 mg/kg)?
**A.** Its MRT is 37.2 min.

**Q.** What about the Vd ([2]; 10 mg/kg) of the same compound?
**A.** Its Vd is 0.31334 L/kg.

**Q.** What about the t1/2 ([2]; 10 mg/kg) of the same compound?
**A.** The t1/2 was 33.6 min.

**Q.** What about the MIC [6] of the same compound?
**A.** Its MIC is 0.0625 µg/mL (≈ 0.0638 µM).

**Q.** What about the MIC ([7]; strain FDA-CDC AR-BANK#0439, AMR gene aac(6′)-Il, aadA1b, BCR1, IMP-18, OXA-50) of the same compound?
**A.** The MIC was 0.125 µg/mL (≈ 0.128 µM).

**Q.** And the MIC ([7]; strain FDA-CDC AR-BANK#0441, AMR gene KPC-2, read-out: MIC)?
**A.** Its MIC is 2 µg/mL (≈ 2.04 µM).

**Q.** What about the MIC ([7]; strain FDA-CDC AR-BANK#0444, AMR gene aac(6′)-Il, dfrB5, OXA-4, tet(G), VIM-2, read-out: MIC) of the same compound?
**A.** The MIC was 2 µg/mL (≈ 2.04 µM).

**Q.** And the MIC ([7]; strain FDA-CDC AR-BANK#0457, AMR gene aadA6, VIM-2)?
**A.** Its MIC is 0.125 µg/mL (≈ 0.128 µM).

**Q.** And the MIC ([3]; strain FDA-CDC AR-BANK#0036, AMR gene strB, OXA-65, OXA-24, strA, sul2, read-out: MIC)?
**A.** Its MIC is 0.25 µg/mL (≈ 0.255 µM).

**Q.** What about the MIC ([3]; strain FDA-CDC AR-BANK#0052, AMR gene OXA-58, OXA-100, sul2) of the same compound?
**A.** The MIC was 0.125 µg/mL (≈ 0.128 µM).

**Q.** What about the MIC [3, 8] of the same compound?
**A.** Its MIC is 32 µg/mL (≈ 32.7 µM).

**Q.** And the MIC ([3]; strain FDA-CDC AR-BANK#0070, AMR gene OXA-58, OXA-100, sul2)?
**A.** Its MIC is 0.125 µg/mL (≈ 0.128 µM).

**Q.** And the MIC ([3]; strain FDA-CDC AR-BANK#0101, AMR gene strB, OXA-65, OXA-24, strA, sul2, read-out: MIC)?
**A.** Its MIC is 1 µg/mL (≈ 1.02 µM).

**Q.** And the MIC ([4]; strain FDA-CDC AR-BANK#0361, AMR gene TEM-1, SHV-12, KPC-2)?
**A.** Its MIC is 0.5 µg/mL (≈ 0.51 µM).

**Q.** What about the MIC ([4]; strain FDA-CDC AR-BANK#0362, AMR gene TEM-1, SHV-11, KPC-2) of the same compound?
**A.** The MIC was 0.25 µg/mL (≈ 0.255 µM).

**Q.** What about the MIC ([4]; strain FDA-CDC AR-BANK#0363, AMR gene TEM-1, SHV-12, KPC-2) of the same compound?
**A.** The MIC was 0.125 µg/mL (≈ 0.128 µM).

**Q.** What about the MIC ([4]; strain FDA-CDC AR-BANK#0438, AMR gene aph(3′)-Ia, dfrA12, KPC-3, OmpK35, oqxA, oqxB, SHV-11) of the same compound?
**A.** Its MIC is 0.5 µg/mL (≈ 0.51 µM).

**Q.** What about the MIC [4, 9] of the same compound?
**A.** Its MIC is 1 µg/mL (≈ 1.02 µM).
